# Test: physchem
# Details: pH 7.4 buffer
row,SMILES,solubility thermodynamic [µM]
1,O=S(=O)(NCCNC/C=C/c1ccc(Br)cc1)c1cccc2cnccc12,61.7
2,O=C(O)c1csc(NC(=O)C(CC2CCCC2)c2ccc(Cl)c(Cl)c2)n1 (stereo not given),34.7
3,CC(C)Oc1cccc(NC(=O)c2ccc3cc(C(=N)N)ccc3c2)c1,64.6
4,COc1ccc2oc(=O)c(C(C)=O)cc2c1,49
5,O=C(c1ccccc1)C1CCN(C(=O)c2cccs2)CC1,79.4
6,Cc1cnc(NC(=O)CSc2nnc(C)s2)s1,70.8
7,COc1ccc(-c2cnn(C3CCS(=O)(=O)C3)c2N)cc1 (stereo not given),81.3
8,CN(C(=O)Cc1ccc(S(C)(=O)=O)cc1F)C1CCN(Cc2ccc(C(F)(F)F)cc2)CC1,74.1
9,NC(=O)Nc1sc(-c2ccc(Cl)c(Cl)c2)cc1C(=O)N[C@H]1CCCNC1,66.1
10,CC(C)(C)OC(=O)N1CCC(c2ncc(OCc3ccc(S(C)(=O)=O)cc3)cn2)CC1,61.7
11,COc1ccc(NCc2ccc(C(=O)Nc3ccccc3N)cc2)cc1OC,57.5
12,CCCSc1ncccc1C(=O)NC1CCCCC1,81.3
13,CC(C)(C)[C@@H](C#N)NC(=O)[C@@H]1CCCC[C@H]1C(=O)N1CCc2[nH]c3ccc(F)cc3c2C1,74.1
14,Cc1cc(C)cc(-c2[nH]c3sc(C(C)(C)C(=O)N4C5CCC4CC5)cc3c2C(=O)CN2CCN(CC(=O)N3CCCC3)CC2)c1,70.8
15,C[C@@H](Oc1cccc2ncnc(Nc3ccc4c(cnn4Cc4cscn4)c3)c12)C(=O)N(C)C,43.7
16,C[C@H](Oc1cccc2ncnc(Nc3ccc4c(cnn4Cc4cscn4)c3)c12)C(=O)N(C)C,42.7
17,NC(=O)Nc1sc(-c2ccc(F)cc2)cc1C(N)=O,67.6
18,N#Cc1cccnc1-c1ccc(C(=O)Nc2ccccc2N)cc1,35.5
19,Oc1cc(-c2ccccc2)nc2c(O)cccc12,41.7
20,CC(=O)Nc1ccc(-c2ccccc2)cc1,79.4
21,O=C(O)c1cc2c(Cl)cccc2n1Cc1ccc(Cl)c(Cl)c1,66.1
22,N=C(N)Nc1nc(-c2cccc(O)c2)cs1,79.4
23,COc1ccc(OC)c(NC(=O)Cc2cccs2)c1,74.1
24,Cc1cc(C)cc(-c2[nH]c3sc(C(C)(C)C(=O)N4C5CCC4CC5)cc3c2C(=O)CN2CCC(C(=O)N3CCOCC3)CC2)c1,72.4
25,COC1CCN(C(=O)C2CCN(CCc3c(-c4cc(C)cc(C)c4)[nH]c4sc(C(C)(C)C(=O)N5C6CCC5CC6)cc34)CC2)C1 (stereo not given),70.8

row,SMILES,solubility thermodynamic [µM]
1,CC1(C)Oc2ncnc(N)c2N=C1c1ccc(C23CC4CC(CC(CC(=O)O)(C4)C2)C3)cc1,79.4
2,COCCN(C)S(=O)(=O)c1ccc(Nc2nccc(-c3cnc(C)n3C)n2)cc1,56.2
3,CC(C)c1cc(C(=O)N[C@@H](Cc2cccc(Cl)c2)C(=O)NCC#N)n(C)n1,47.9
4,CC(C)OC(=O)c1cn(Cc2c(F)cccc2F)c2sc(-c3ccc(NC(=O)C(C)C)cc3)c(CN(C)Cc3ccccc3)c2c1=O,38
5,Cc1cccc(-c2ccc3c(c2)c(C(=O)C(=O)O)cn3Cc2ccc(C(C)(C)C)cc2)c1 [ALEPLASININ],363
6,c1ccc(-c2ccc(C(c3ccccc3)n3ccnc3)cc2)cc1 (stereo not given) [BIFONAZOLE],1.1
7,COc1ccc(/C=C\c2cc(OC)c(OC)c(OC)c2)cc1O [COMBRETASTATIN A4],144
8,COCC(=O)NC/C=C/c1ccc2ncnc(Nc3ccc(Oc4ccc(C)nc4)c(C)c3)c2c1 [CP-724714],1.1
9,CN(C)C(=O)Nc1ccc(Cl)c(Cl)c1 [DCMU],132
10,CCC[C@@H]1O[C@@H]2C[C@H]3[C@@H]4CCC5=CC(=O)C=C[C@]5(C)[C@H]4[C@@H](O)C[C@]3(C)[C@]2(C(=O)CO)O1 [DEXBUDESONIDE],19.5
11,CC/C(=C(/CC)c1ccc(O)cc1)c1ccc(O)cc1 [DIETHYLSTILBESTROL],25.1
12,O=C1NCNC1(c1ccccc1)c1ccccc1 [DOXENITOIN],316
13,CC1(C)C=Cc2c(O)nc3ccccc3c2O1 [FLINDERSINE],67.6
14,COc1ccc2[nH]c(=O)c3c(c2c1)OC(C)(C)C=C3 [HAPLAMINE],87.1
15,NC(=O)c1ccc(I)c([N+](=O)[O-])c1 [INIPARIB],417
16,CCCNC(=O)Nc1ccc(Oc2ncnc3cc(OC)c(OC)cc23)cc1Cl [KRN-633],0.2
17,CC1(C)CNc2cc(NC(=O)c3cccnc3NCc3ccncc3)ccc21 [MOTESANIB],44.7
18,COc1c(C)c2c(c(O)c1C/C=C(\C)CCC(=O)NO)C(=O)OC2 [MYCOPHENOLIC HYDROXAMIC ACID],1000
19,CNC(=O)c1c(-c2ccc(F)cc2)oc2cc(N(CCO)S(C)(=O)=O)c(C3CC3)cc12 [NESBUVIR],60.3
20,COC(=O)C1=C(C#N)NC(C)=C(C(=O)OC(C)C)C1c1cccc([N+](=O)[O-])c1 (stereo not given) [NILVADIPINE],2.1
21,COc1ccc(/C=C\c2cc(OC)c(OC)c(OC)c2)cc1NC(=O)[C@@H](N)CO [OMBRABULIN],1510
22,CCOc1cc2ncc(C#N)c(Nc3ccc(F)c(Cl)c3)c2cc1NC(=O)/C=C/CN(C)C [PELITINIB],1.5
23,c1ccc2c(c1)Nc1ccccc1S2 [PHENOTHIAZINE],2.9
24,C[C@@H](Nc1ncnc2[nH]c(-c3ccc(O)cc3)cc12)c1ccccc1 [PKI-166],28.8

# The remaining lines, values ahead:
row,solubility thermodynamic [µM],SMILES
1,58.9,COc1cccc(C(=O)N2CCC(C(=O)c3ccc(F)cc3)CC2)c1
2,77.6,O=c1cc(CN2CCOCC2)occ1OCCCCCSc1ccnc2cc(C(F)(F)F)ccc12
3,33.9,Cc1cc2oc(=O)cc(Cn3ccnc3)c2cc1C
4,33.9,COCCOc1cc2nccc(Nc3ccc(Cl)cc3F)c2cc1OC
5,72.4,COc1ccc(Cl)c(Nc2ncnc3cc(OCCCN4CCOCC4)c(OC)cc23)c1
6,43.7,CC1(C)C(=O)N(c2ccc(SC(F)(F)F)cc2)C(=O)N1Cc1ccncc1
7,44.7,COc1cc(C2CCNCC2)ccc1Nc1ncc(Cl)c(-c2cnc3ccccn23)n1
8,69.2,COc1ccc(N2CCNCC2)cc1Nc1ncc(Cl)c(-c2cnc3ccccn23)n1
9,58.9,O=C(Nc1cccc(O)c1)c1ccc(OCCCN2CCCC2)cc1OC1CCCC1
10,61.7,O=C(Nc1ccccc1)c1ccc(OCCCN2CCCC2)cc1OCc1ccccc1
11,34.7,N#Cc1ccccc1COc1cc(OCCCN2CCCC2)ccc1C(=O)Nc1ccccc1
12,70.8,CCN(C(=O)NCc1cccc(C)c1)C1CCN(CCC(c2ccccc2)c2ccccc2)CC1
13,61.7,CC(C)Oc1cc(OCc2ccccc2F)cc(C(=O)Nc2ccc(C(=O)O)cn2)c1
14,66.1,COc1cccc(NC(=O)Cn2cc(Oc3ccnc4cc(OC)c(OC)cc34)cn2)c1
15,45.7,CC(C)Oc1cc(OCC2CCCC2)cc(C(=O)Nc2ccc(C(=O)O)cn2)c1
16,56.2,CCN(C(=O)Cc1ccc(S(C)(=O)=O)cc1)C1CCN(CC[C@@H](c2ccccc2)C2CCN(S(=O)(=O)C(F)(F)F)CC2)CC1
17,42.7,COc1ccc(Cl)c(Nc2ncnc3cc(OCCN4CCN(C(C)=O)CC4)cc(OC(C)C)c23)n1
18,75.9,CO[C@@H]1CN(Cc2ccc(C(F)(F)F)cc2)CC[C@@H]1N(C)C(=O)Cc1ccc(-n2cnnn2)cc1
19,47.9,CS(=O)(=O)Cc1cc(N2CCOCC2)nc(-c2cnc3[nH]ccc3c2)n1
20,38,CN1CCN(CCCOc2cc(OC3CCOCC3)c3c(Nc4ccc(F)c(Cl)c4)ncnc3c2)CC1
21,51.3,COc1cc2ncnc(Nc3cccc(Cl)c3F)c2cc1CN(C)C1(C(N)=O)CN(C)C1

row,solubility thermodynamic [µM],SMILES
1,74.1,N#CC1(NC(=O)[C@@H]2CCCC[C@H]2C(=O)N2CCc3[nH]c4ccc(C(F)(F)F)cc4c3C2)CC1
2,41.7,COc1cc2c(Nc3ccc(Br)cc3F)ncnc2cc1OCCCN1CCN(C)CC1
3,43.7,COc1cc(-c2nn[nH]n2)ccc1Cn1ncc2ccc(NC(=O)OC3CCCC3)cc21
4,70.8,COc1cc2c(Nc3c(Cl)ccc4c3OCO4)ncnc2cc1OCCCN1CCOCC1
5,77.6,COc1cc2ncnc(Nc3cccc(Cl)c3F)c2cc1CN1CC[C@H](C(N)=O)C1
6,50.1,COc1ccc(Cl)c(Nc2ncnc3cc(OCCCN4CCN(C(C)=O)CC4)cc(OC(C)C)c23)n1
7,70.8,CC(C)CCn1c(Cn2c(=O)n(C3CC3)c(=O)c3ccccc32)nc2cc(CN)ccc21
8,33.1,Cc1cc(C)cc(-c2[nH]c3sc(C(C)(C)C(=O)N4C5CCC4CC5)cc3c2CCN2CCC(C(=O)N3CCOCC3)C(C)C2)c1 (stereo not given)
9,34.7,CC(C)n1c2ccc(F)cc2c2cc(NC(=O)N3CCOCC3)ccc21
10,53.7,COCCNS(=O)(=O)c1ccc(Nc2nccc(-c3cnc(C)n3C3CCCC3)n2)cc1
11,56.2,Cc1ncc(-c2ccnc(Nc3ccc(N4CCOCC4)cc3)n2)n1C(C)C
12,44.7,N=C(N)c1ccc2cc(C(=O)Nc3ccc4c(c3)OCO4)ccc2c1
13,1.7,Cc1c(NC(=O)OC[C@@H]2COCCN2)cn2ncnc(Nc3ccc4c(cnn4Cc4cccc(F)c4)c3)c12 [AC-480]
14,58.9,CCN1CCN(Cc2ccc(-c3cc4c(N[C@H](C)c5ccccc5)ncnc4[nH]3)cc2)CC1 [AEE-788]
15,10,COc1cc2ncnc(Nc3ccc(NC(=O)c4ccccc4)cc3)c2cc1OC [ANILINOQUINAZOLINE1]
16,324,COc1ccc(Cl)c(Nc2ncnc3cc(OCC4CCN(C)CC4)c(OC)cc23)c1 [AZM-475271]
17,5.2,Cc1c(-c2ccc(O)cc2)n(Cc2ccc(OCCN3CCCCCC3)cc2)c2ccc(O)cc12 [BAZEDOXIFENE]
18,8.3,CN1CCN(c2ccc3nc(-c4c(N)c5c(F)cccc5[nH]c4=O)[nH]c3c2)CC1 [DOVITINIB]
19,7.1,O=c1cc(-c2cccc3c2Sc2ccccc2S3)oc(N2CCOCC2)c1 [KU-55933]
20,1.1,Cc1cn(-c2cc(NC(=O)c3ccc(C)c(Nc4nccc(-c5cccnc5)n4)c3)cc(C(F)(F)F)c2)cn1 [NILOTINIB]

# — ChEMBL document CHEMBL3301361, “Experimental in vitro DMPK and physicochemical data on a set of publicly disclosed compounds”
